Data as given in patent US7790188B2, “Antifungal protein and usage thereof” (Food Industry Research and Development Institute, priority 2006, dated 2010).

Tests used:
H. panici BCRC 35004 = test: Antifungal activity assay (pathogen antagonistic dosage assay, paper discs on PDA plate); assay type: cell-based, Helminthosporium panici; details: 28° C.
Description: (§1) The fungal strains for testing the antifungal activities of Monascus strains or isolated and purified antifungal protein, MAFP1, are selected from Helminthosporium panici BCRC 35004 and Paecilomyces variotii BCRC 33174. The fungal strains were inoculated on PDA (Potato Dextrose Agar, Difico Co.) culture plate and cultured at 25° C. for 7 to 14 days. Pathogen antagonistic dosage assays were conducted to confirm the antifungal activity of the purified MAFP1 protein. Fungal blocks of pathogenic fungi (P. variotii BCRC 33174 and H. panici BCRC 35004) were place in the center of PDA plates. 6 mm paper discs with different concentrations of MAFP1 solutions (containing 0 to 0.8 μg of purified MAFP1 protein) were placed surround the fungal block of pathogenic fungus. The plates were cultured at 28° C. and the growth inhibitions of the pathogenic fungi were observed.

P. variotii BCRC 33174 = test: as above; assay type: cell-based, Paecilomyces variotii; details: 28° C.
Description: as §1

[1] = discs with 0 to 0.8 μg MAFP1, PDA plate

## MAFP1: Antifungal protein of about 7 kDa purified from M. pilosus BCRC 38093 culture broth; mature form, SEQ ID NO: 3 (LSKYGGECSLQHNTCTYLKGGKNQVVHCGSAANQKCKSDRHHCEYDEHHKTVNCQTPV; listed as Monascus pilosus)
H. panici BCRC 35004; 0.4 μg of purified MAFP1 protein on 6 mm paper disc, PDA plate
  growth inhibition of H. panici: can significantly inhibit the growth
H. panici BCRC 35004; [1]
  dependence of growth inhibition of pathogenic fungus on MAFP1 concentration: the higher the MAFP1 concentration, the stronger the inhibitory activity
P. variotii BCRC 33174; 0.2 μg of purified MAFP1 protein on 6 mm paper disc, PDA plate
  growth inhibition of P. variotii: can significantly inhibit the growth
P. variotii BCRC 33174; [1]
  dependence of growth inhibition of pathogenic fungus on MAFP1 concentration: the higher the MAFP1 concentration, the stronger the inhibitory activity
